Reference: patent US20220265629A1, “TREATMENT OF SYSTOLIC DYSFUNCTION AND HEART FAILURE WITH REDUCED EJECTION FRACTION WITH THE COMPOUND (R)-4-(1-((3-(DIFLUOROMETHYL)-1-METHYL-1H-PYRAZOL-4-YL)SULFONYL)-1-FLUOROETHYL)-N-(ISOXAZOL-3-YL)PIPERIDINE-1-CARBOXAMIDE” (MyoKardia, Inc., priority 2019, published 2022)

Columns and labels:
[1] = test system: patients with stable HFrEF; experiment: HFrEF study Part 1 (SAD Cohorts 1 and 2): TTE pharmacodynamics by plasma concentration group; type: in vivo, human; settings: for A wave peak change from baseline, placebo-corrected (LS mean difference) / E wave peak change from baseline, placebo-corrected (LS mean difference) / E/A ratio change from baseline, placebo-corrected (LS mean difference) / E/e′ lateral change from baseline, placebo-corrected (LS mean difference) / LVEDD change from baseline, placebo-corrected (LS mean difference) / LVEDV change from baseline, placebo-corrected (LS mean difference) / LVEF change from baseline, placebo-corrected (LS mean difference) / LVESD change from baseline, placebo-corrected (LS mean difference) / LVESV change from baseline, placebo-corrected (LS mean difference) / LVFS change from baseline, placebo-corrected (LS mean difference) / LVGLS change from baseline, placebo-corrected (LS mean difference) / LVSV change from baseline, placebo-corrected (LS mean difference) / SET change from baseline, placebo-corrected (LS mean difference) / e′ lateral change from baseline, placebo-corrected (LS mean difference): pooled SAD Cohorts 1 and 2
Description: PD assessment was done by transthoracic echocardiography as described in Example 1 above. TTE evaluations of LVSV (derived from LVOT-VTI), LVEF, LVFS, SET, and other parameters were PD assessments at predetermined time points. The patients were on bed rest for 10 minutes before the TTEs were obtained. In Part 2 (MAD), TTEs were usually obtained before the morning close and/or at 7 hours postclose (i.e., close to the anticipated peak effect based on the PK profile from the healthy volunteer studies).
For both Cohorts 1 and 2, the pharmacodynamic effects of Compound I on echocardiographic markers of cardiac structure and function were analyzed by Compound I plasma concentration groups: <2000 ng/mL (low concentration group) and >2000 ng/mL (high concentration group) (Table 12).

[2] = test system: patients with stable HFrEF; experiment: HFrEF study Part 1 (SAD Cohorts 1 and 2): safety (TEAEs, troponin, ECG, Holter); type: in vivo, human
Description: Safety and efficacy assessments were conducted by measuring patients' vital signs and laboratory parameters; performing TTE to measure, e.g., systolic ejection time; performing electrocardiograms (e.g., 12-lead ECG), real-time ECG telemetry (e.g., at least 3-lead), and Holter ECG; and measuring levels of troponin (e.g., troponin I and/or troponin T) and […].
The following safety laboratory parameters were measured: (1) hematology parameters (CBC, including differential count, and platelet count); (2) serum chemistry parameters (e.g., sodium, potassium, chloride, bicarbonate, calcium, magnesium, urea, creatinine, ALP, ALT, AST, total bilirubin, glucose, and CPK); and (3) urinalysis parameters (e.g., pH, protein, glucose, leukocyte esterase, and blood).
Abnormal and/or rising troponin values (as per investigator's judgment and taking into account potential baseline troponin elevation frequently observed in heart failure) led to the patient being clinically evaluated for possible myocardial ischemia. […] The entire clinical context (e.g., signs, symptoms, new ECG changes, new troponin, and CK-MB abnormalities) was evaluated and correlated with any other relevant clinical findings, patient's medical history, and laboratory data to determine the clinical significance of the findings. Troponin results performed on Day 2 of Part 1 (SAD) and Day 10 of Part 2 (MAD) at a local lab were reviewed prior to the patient being discharged the next day.

[3] = high plasma concentration group (≥2000 ng/mL)

Cn1cc(S(=O)(=O)[C@@](C)(F)C2CCN(C(=O)Nc3ccon3)CC2)c(C(F)F)n1 [Compound I, (R)-4-(1-((3-(difluoromethyl)-1-methyl-1H-pyrazol-4-yl)sulfonyl)-1-fluoroethyl)-N-(isoxazol-3-yl)piperidine-1-carboxamide]
SET prolongation in one patient ([1]; 350 mg, 1.5 and 3 h postdose): ~63 ms | Mean SET prolongation for all patients ([1]; 350 mg, 3 to 9 hours postdose): 16.2 ms | SET prolongation in one patient ([1]; 350 mg, 6 and 9 hours postdose): < 35 ms | increase in SET ([1]; SAD cohorts): < 50 ms | relative increases from baseline in cardiac contractility (SV, LVEF, FS) ([1]; SAD cohorts): approximately 10% | LV ejection fraction, mean (SE) increase from baseline [1, 3]: 4.4% | LV global longitudinal strain, mean (SE) decrease [1, 3]: −2.1% | A wave peak change from baseline, placebo-corrected (LS mean difference) ([1]; plasma <2000 ng/mL): -3.2 cm/s | E wave peak change from baseline, placebo-corrected (LS mean difference) ([1]; plasma <2000 ng/mL): -1.1 cm/s | E/A ratio change from baseline, placebo-corrected (LS mean difference) ([1]; plasma <2000 ng/mL): 0.09 | E/e′ lateral change from baseline, placebo-corrected (LS mean difference) ([1]; plasma <2000 ng/mL): 0.6 | LVEDD change from baseline, placebo-corrected (LS mean difference) ([1]; plasma <2000 ng/mL): 0.2 mm | LVEDV change from baseline, placebo-corrected (LS mean difference) ([1]; plasma <2000 ng/mL): -2.5 mL | LVEF change from baseline, placebo-corrected (LS mean difference) ([1]; plasma <2000 ng/mL): 4.1% | LVESD change from baseline, placebo-corrected (LS mean difference) ([1]; plasma <2000 ng/mL): −1.3 mm | LVESV change from baseline, placebo-corrected (LS mean difference) ([1]; plasma <2000 ng/mL): -4.0 mL | LVFS change from baseline, placebo-corrected (LS mean difference) ([1]; plasma <2000 ng/mL): 3.1% | LVGLS change from baseline, placebo-corrected (LS mean difference) ([1]; plasma <2000 ng/mL): −1.1% | LVSV change from baseline, placebo-corrected (LS mean difference) ([1]; plasma <2000 ng/mL): 1.0 mL | SET change from baseline, placebo-corrected (LS mean difference) ([1]; plasma <2000 ng/mL): 8 ms | e′ lateral change from baseline, placebo-corrected (LS mean difference) ([1]; plasma <2000 ng/mL): -1 cm/s | A wave peak change from baseline, placebo-corrected (LS mean difference) ([1]; plasma ≥2000 ng/mL): -8.8 cm/s | E wave peak change from baseline, placebo-corrected (LS mean difference) ([1]; plasma ≥2000 ng/mL): -1.6 cm/s | E/A ratio change from baseline, placebo-corrected (LS mean difference) ([1]; plasma ≥2000 ng/mL): 0.08 | E/e′ lateral change from baseline, placebo-corrected (LS mean difference) ([1]; plasma ≥2000 ng/mL): 0.2 | LVEDD change from baseline, placebo-corrected (LS mean difference) ([1]; plasma ≥2000 ng/mL): −0.3 mm | LVEDV change from baseline, placebo-corrected (LS mean difference) ([1]; plasma ≥2000 ng/mL): -1.9 mL | LVEF change from baseline, placebo-corrected (LS mean difference) ([1]; plasma ≥2000 ng/mL): 4.4% | LVESD change from baseline, placebo-corrected (LS mean difference) ([1]; plasma ≥2000 ng/mL): −1.8 mm | LVESV change from baseline, placebo-corrected (LS mean difference) ([1]; plasma ≥2000 ng/mL): -3.5 mL | LVFS change from baseline, placebo-corrected (LS mean difference) ([1]; plasma ≥2000 ng/mL): 2.8% | LVGLS change from baseline, placebo-corrected (LS mean difference) ([1]; plasma ≥2000 ng/mL): −2.1% | LVSV change from baseline, placebo-corrected (LS mean difference) ([1]; plasma ≥2000 ng/mL): 9.0 mL | SET change from baseline, placebo-corrected (LS mean difference) ([1]; plasma ≥2000 ng/mL): 36 ms | e′ lateral change from baseline, placebo-corrected (LS mean difference) ([1]; plasma ≥2000 ng/mL): -1 cm/s | TEAE Any SOC, any PT, % ([2]; 175 mg (n = 8)): (25.0) % | TEAE Dyspnea, % ([2]; 175 mg (n = 8)): (12.5) % | TEAE Fatigue, % ([2]; 175 mg (n = 8)): (12.5) % | TEAE Infusion site discomfort, % ([2]; 175 mg (n = 8)): (12.5) % | TEAE Urinary tract infection, % ([2]; 175 mg (n = 8)): (12.5) % | TEAE Any SOC, any PT, % ([2]; 350 mg (n = 8)): (62.5) % | TEAE Bursitis, % ([2]; 350 mg (n = 8)): (12.5) % | TEAE Diarrhoea, % ([2]; 350 mg (n = 8)): (12.5) % | TEAE Hypomagnesemia, % ([2]; 350 mg (n = 8)): (12.5) % | TEAE Oral contusion, % ([2]; 350 mg (n = 8)): (12.5) % | TEAE Proteinuria, % ([2]; 350 mg (n = 8)): (12.5) % | TEAE Anemia, % ([2]; 400 mg Split Dose (n = 4)): (25.0) % | TEAE Any SOC, any PT, % ([2]; 400 mg Split Dose (n = 4)): (75.0) % | TEAE Neck pain, % ([2]; 400 mg Split Dose (n = 4)): (25.0) % | TEAE Orthostatic hypotension, % ([2]; 400 mg Split Dose (n = 4)): (25.0) % | TEAE Ventricular extrasystoles, % ([2]; 400 mg Split Dose (n = 4)): (25.0) % | TEAE Any SOC, any PT, % ([2]; 550 mg Split Dose (n = 2)): (50.0) % | TEAE Cardiac discomfort, % ([2]; 550 mg Split Dose (n = 2)): 50.0% | TEAE Dyspnea, % ([2]; 550 mg Split Dose (n = 2)): (50.0) % | TEAE Troponin increase, % ([2]; 550 mg Split Dose (n = 2)): (50.0) % | maximum troponin I level (one subject) ([2]; 550 mg, 24 hours post-dose, 4×ULN): 0.12 ng/mL | TEAE Anemia, % ([2]; Total Active (n = 12)): (8.3) % | TEAE Any SOC, any PT, % ([2]; Total Active (n = 12)): (83.3) % | TEAE Bursitis, % ([2]; Total Active (n = 12)): (8.3) % | TEAE Cardiac discomfort, % ([2]; Total Active (n = 12)): (8.3) % | TEAE Diarrhoea, % ([2]; Total Active (n = 12)): (8.3) % | TEAE Diverticulitis, % ([2]; Total Active (n = 12)): (8.3)- % | TEAE Dyspnea, % ([2]; Total Active (n = 12)): (8.3) % | TEAE Fatigue, % ([2]; Total Active (n = 12)): (8.3) % | TEAE Hypomagnesemia, % ([2]; Total Active (n = 12)): (8.3) % | TEAE Infusion site discomfort, % ([2]; Total Active (n = 12)): (8.3) % | TEAE Neck pain, % ([2]; Total Active (n = 12)): (8.3) % | TEAE Oral contusion, % ([2]; Total Active (n = 12)): (8.3) % | TEAE Orthostatic hypotension, % ([2]; Total Active (n = 12)): (8.3) % | TEAE Proteinuria, % ([2]; Total Active (n = 12)): (8.3) % | TEAE Troponin increase, % ([2]; Total Active (n = 12)): (8.3) % | TEAE Urinary tract infection, % ([2]; Total Active (n = 12)): (8.3) % | TEAE Ventricular extrasystoles, % ([2]; Total Active (n = 12)): (8.3) % | QTcF (study ECGs) ([2]; all patients): no signal for QTcF increase | Holter monitoring: atrial ectopy, atrial fibrillation, ventricular ectopy, NSVT runs ([2]; compared to placebo): no signal | active-treatment periods with transient troponin increase (3/30) ([2]; doses from 175 to 550 mg): 10% | subjects with transient troponin increase (3/12) ([2]; doses from 175 to 550 mg): 25% | safety and tolerability ([2]; single-ascending doses 175 to 550 mg): safe and generally well-tolerated
